Source: patent US20100143992A1, “Process for Fermentive Preparation of Alcohols and Recovery of Product” (E. I du Pont de Nemours and Company, priority 2008, published 2010)

How the values were obtained:
[1] = Extraction of ethanol from an aqueous solution by ionic liquid; type: physicochemical; settings: 5 vol % ionic liquid; for g/L ethanol left in solution / mM Ethanol (in solution after extraction): 3 mL aqueous solution, about 31 g/L ethanol, overnight equilibration; for g/L ethanol left in solution: control 30.2; for mM Ethanol (in solution after extraction): control 655; for % EthOH Extracted: percentage of alcohol remaining in control
Protocol: (§2) The extraction of ethanol and isobutanol from an aqueous solution by selected ionic liquids was evaluated. […] Ethanol and isobutanol concentration in the solution was measured using HPLC as described above following thorough mixing and overnight equilibration of the contents of the vial.

[2] = Extraction of isobutanol from an aqueous solution by ionic liquid; type: physicochemical; settings: 5 vol % ionic liquid; for g/L isobutanol left in solution / mM isobutanol (in solution after extraction): 3 mL aqueous solution, about 31 g/L isobutanol, overnight equilibration; for g/L isobutanol left in solution: control 32.3; for mM isobutanol (in solution after extraction): control 436; for % isobutanol Extracted: percentage of alcohol remaining in control
Protocol: as §2

[3] = test system: Lactobacillus fermentum (ATCC 14931); assay: Glucose Uptake Index (GUI) of culture grown with ionic liquid; type: cell-based; settings: 5% (v/v) ionic liquid, 16 hours at 30° C., GUI of control without ionic liquid 55.9
Protocol: (§1) After 24 hours the test tube was removed and used immediately.

[4] = test system: Lactobacillus zeae (ATCC 15820); assay: as above; type: cell-based; settings: 5% (v/v) ionic liquid, 16 hours at 30° C., GUI of control without ionic liquid 61.9
Protocol: as §1

Compound	g/L ethanol left in solution [1] [g/L]	mM Ethanol (in solution after extraction) [1] [mM]	% EthOH Extracted [1] [%]	g/L isobutanol left in solution [2] [g/L]	mM isobutanol (in solution after extraction) [2] [mM]	% isobutanol Extracted [2] [%]	GUI of Sample (Glucose Utilization Index in the presence of ionic liquid phase) [3]	GUI of Sample (Glucose Utilization Index in the presence of ionic liquid phase) [4]
CCOCC[N+](C)(C)CCN1C(=O)CCC1C (centres unmarked) [[MeDMEEAP] [HFPS]] [1-(N,N,N-dimethyl(ethylethoxy)aminoethyl)-5-methyl-pyrrolidine-2-one hexafluoropropanesulfonate]	30.2	656	0.00	31.3	422	3.38	34.5	46.9
CC1CCC(=O)N1CC[N+](C)(C)CCO.O=S(=O)([N-]S(=O)(=O)C(F)(F)F)C(F)(F)F (centres unmarked) [[MeDHEAP] [Tf2N], 1-(N,N,N-dimethyl(hydroxyethyl)aminoethyl)-5-methylpyrrolidone-2-one bis(trifluoromethane)sulfonamide]				30.9	417	4.68		
1-Butyl-3-methylimidazolium levulinate [[BMIM] [Lev]]	27.5	596	8.95					
CCOCC[N+](C)(C)CCN1C(=O)CCC1C (centres unmarked) [[MeDMEEAP] [Tf2N]] [1-(N,N,N-dimethyl(ethylethoxy)aminoethyl)-5-methyl-pyrrolidine-2-one bis(trifluoromethane)-sulfonamide]	29.4	637	2.66	29.5	398	9.48	37.6	49.5
1-Ethyl-3-methylimidazolium levulinate [[EMIM] [Lev]]							32.3	41.4
COCC[N+](C)(C)CCN1C(=O)CCC1C (centres unmarked) [[MeDMMEAP] [HFPS], 1-(N,N,N-dimethyl(methylethoxy)aminoethyl)-5-methylpyrrolidin-2-one hexafluoropropanesulfonate]	29.7	645	1.48	31.4	423	3.00	31.3	45.1
COCC[N+](C)(C)CCN1C(=O)CCC1C.O=S(=O)([N-]S(=O)(=O)C(F)(F)F)C(F)(F)F (centres unmarked) [[[MeDMMEAP] [Tf2N], 1-(N,N,N-dimethyl(methylethoxy)aminoethyl)-5-methylpyrrolidone-2-one bis(trifluoromethane)sulfonamide]	29.6	643	1.88	28.8	389	12.1		
CCC[N+](C)(C)CCN1C(=O)CCC1C.O=S(=O)([N-]S(=O)(=O)C(F)(F)F)C(F)(F)F (centres unmarked) [[MeDMPAP] [Tf2N], 1-(N,N,N-dimethylpropylaminoethyl)-5-methylpyrrolidone-2-one bis(trifluoromethane)sulfonamide]				28.7	387	12.7		
